Data as given in paper PMC8699473, “An Easily Expandable Multi-Drug LC-MS Assay for the Simultaneous Quantification of 57 Oral Antitumor Drugs in Human Plasma” (Cancers, 2021).

Assay: Long-term stability in spiked pooled human plasma

SMILES	Long-term stability, 1 month, -20°C Accuracy [%] (validation standard 2xLLOV)	Long-term stability, 1 month, -80°C Accuracy [%] (validation standard 2xLLOV)	Long-term stability, 2 month, -20°C Accuracy [%] (validation standard 2xLLOV)	Long-term stability, 2 month, -80°C Accuracy [%] (validation standard 2xLLOV)	Long-term stability, 3 month, -20°C Accuracy [%] (validation standard 2xLLOV)	Long-term stability, 3 month, -80°C Accuracy [%] (validation standard 2xLLOV)	Long-term stability, 6 weeks, 4°C, without daylight Accuracy [%] (validation standard 2xLLOV)	Long-term stability, 1 month, -20°C Accuracy [%] (validation standard LLOV)	Long-term stability, 1 month, -80°C Accuracy [%] (validation standard LLOV)	Long-term stability, 2 month, -20°C Accuracy [%] (validation standard LLOV)	Long-term stability, 2 month, -80°C Accuracy [%] (validation standard LLOV)	Long-term stability, 3 month, -20°C Accuracy [%] (validation standard LLOV)	Long-term stability, 3 month, -80°C Accuracy [%] (validation standard LLOV)	Long-term stability, 1 month, -20°C Accuracy [%] (validation standard MOV)	Long-term stability, 1 month, -80°C Accuracy [%] (validation standard MOV)	Long-term stability, 2 month, -20°C Accuracy [%] (validation standard MOV)	Long-term stability, 2 month, -80°C Accuracy [%] (validation standard MOV)	Long-term stability, 3 month, -20°C Accuracy [%] (validation standard MOV)	Long-term stability, 3 month, -80°C Accuracy [%] (validation standard MOV)	Long-term stability, 6 weeks, 4°C, without daylight Accuracy [%] (validation standard MOV)	also measured
Cc1cn(-c2cc(NC(=O)c3ccc(C)c(Nc4nccc(-c5cccnc5)n4)c3)cc(C(F)(F)F)c2)cn1 [Nilotinib]	95.1%	89.2%	96.9%	99.7%	91.6%	92.2%	103.4%	91.9%	89.8%	93.3%	97.4%	90.5%	93.1%	95.6%	91.9%	99.1%	98.0%	96.9%	93.1%	101.7%	Long-term stability, 6 weeks, 4°C, without daylight Accuracy [%] (validation standard LLOV): 102.0%; Long-term stability, 1 month, -20°C Accuracy [%] (validation standard ULOV): 94.2%; Long-term stability, 1 month, -80°C Accuracy [%] (validation standard ULOV): 90.9%; Long-term stability, 2 month, -20°C Accuracy [%] (validation standard ULOV): 97.5%; Long-term stability, 2 month, -80°C Accuracy [%] (validation standard ULOV): 97.0%; Long-term stability, 3 month, -20°C Accuracy [%] (validation standard ULOV): 93.1%; Long-term stability, 3 month, -80°C Accuracy [%] (validation standard ULOV): 91.6%; Long-term stability, 6 weeks, 4°C, without daylight Accuracy [%] (validation standard ULOV): 98.0%
Cc1[nH]c2ccccc2c1CCNCc1ccc(/C=C/C(=O)NO)cc1 [Panobinostat]	52.2%	59.0%	66.3%	107.6%	57.5%	67.6%	11.4%	38.2%	33.7%	21.2%	29.9%	8.2%	34.0%	82.0%	84.1%	75.7%	87.5%	66.1%	82.1%	67.6%	Long-term stability, 1 month, -20°C Accuracy [%] (validation standard ULOV): 89.6%; Long-term stability, 1 month, -80°C Accuracy [%] (validation standard ULOV): 89.9%; Long-term stability, 2 month, -20°C Accuracy [%] (validation standard ULOV): 98.1%; Long-term stability, 2 month, -80°C Accuracy [%] (validation standard ULOV): 99.4%; Long-term stability, 3 month, -20°C Accuracy [%] (validation standard ULOV): 87.5%; Long-term stability, 3 month, -80°C Accuracy [%] (validation standard ULOV): 100.2%; Long-term stability, 6 weeks, 4°C, without daylight Accuracy [%] (validation standard ULOV): 79.4%
O=c1[nH]c(=O)n([C@H]2C[C@H](O)[C@@H](CO)O2)cc1C(F)(F)F [Trifluridine]	112.0%	105.0%	107.3%	104.3%	103.6%	99.5%	68.8%	97.0%	95.2%	79.5%	70.3%	89.9%	85.8%	99.4%	94.6%	109.3%	104.7%	92.2%	90.8%	59.0%	Long-term stability, 6 weeks, 4°C, without daylight Accuracy [%] (validation standard LLOV): 49.1%; Long-term stability, 1 month, -20°C Accuracy [%] (validation standard ULOV): 93.7%; Long-term stability, 1 month, -80°C Accuracy [%] (validation standard ULOV): 88.8%; Long-term stability, 2 month, -20°C Accuracy [%] (validation standard ULOV): 98.4%; Long-term stability, 2 month, -80°C Accuracy [%] (validation standard ULOV): 95.5%; Long-term stability, 3 month, -20°C Accuracy [%] (validation standard ULOV): 82.1%; Long-term stability, 3 month, -80°C Accuracy [%] (validation standard ULOV): 79.9%; Long-term stability, 6 weeks, 4°C, without daylight Accuracy [%] (validation standard ULOV): 27.1%
CN(C)C/C=C/C(=O)Nc1cc2c(Nc3ccc(F)c(Cl)c3)ncnc2cc1O[C@H]1CCOC1 [Afatinib]	79.7%	90.7%	72.1%	92.5%	76.9%	94.1%	26.7%	70.0%	75.4%	68.4%	85.8%	68.4%	90.0%	87.9%	93.1%	84.4%	96.0%	78.2%	96.4%	44.2%	Long-term stability, 6 weeks, 4°C, without daylight Accuracy [%] (validation standard LLOV): 2.9%; Long-term stability, 1 month, -20°C Accuracy [%] (validation standard ULOV): 86.5%; Long-term stability, 1 month, -80°C Accuracy [%] (validation standard ULOV): 91.2%; Long-term stability, 2 month, -20°C Accuracy [%] (validation standard ULOV): 88.3%; Long-term stability, 2 month, -80°C Accuracy [%] (validation standard ULOV): 96.0%; Long-term stability, 3 month, -20°C Accuracy [%] (validation standard ULOV): 82.8%; Long-term stability, 3 month, -80°C Accuracy [%] (validation standard ULOV): 92.1%; Long-term stability, 6 weeks, 4°C, without daylight Accuracy [%] (validation standard ULOV): 37.3%
